Tested on: Horn fly (Haematobia irritans)
Test: Treatment of livestock, control of flying insects (Example 23)
Type: in vivo
Method: The objective of this test was to evaluate the efficacy of the formulations in repelling flying insects from landing on and disturbing livestock. Ten animals were utilized for each treatment or control, with 120 cc/animal applied for each treatment. The experiment was performed by diluting the formulation to the appropriate concentration and spraying the formulation onto the livestock directly. One group had Ivermectin applied as a standard for comparison. Each group of animals was separated in the pasture by fencing. Counts were made immediately before treatments and then 1 day after treatment and 1 week after treatment. Every 2 weeks there was a retreatment and counts were repeated just prior to retreatment with same count cycle recurring through 2 week periods.
The flying insect evaluated was the Horn fly (Haematobia irritans).

Ivermectin
Average number of flies landing on the animals (2-Aug, one day after treatment on August 1 (including Ivermectin group)): 4.8
Average number of flies landing on the animals (6-Jul, one day after the initial treatment, 120 cc/animal, ten animals): 2.4
Average number of flies landing on the animals (8-Aug, one week after treatment on August 1): 62.0
Average number of flies landing on the animals (11-Jul, one week after initial treatment): 2.7
Average number of flies landing on the animals (18-Jul, two weeks after initial treatment): 41.4
Average number of flies landing on the animals (20-Jul, one day after retreatment on July 19 (except ivermectin)): 54.5
Average number of flies landing on the animals (25-Jul, one week after retreatment on July 19 (except ivermectin)): 82.7
Average number of flies landing on the animals (31-Jul, two weeks after retreatment on July 19 (except ivermectin)): 185.9

Reference: patent publication US20080069785A1, “PEST-CONTROL COMPOSITIONS, AND METHODS AND PRODUCTS UTILIZING SAME” (priority 2004, published 2008)
